Data published in PubChem BioAssay AID1963872 (Molecular Pharmacology Branch, DTP, NCI, 2024).
Where “and” joins values, the source holds several entries; their conditions need not be identical. Equal values may be shown once.

System: KRAS patient-derived spheroids with HUVEC/MSC, viability
Experiment: Anticancer human tumor 519858-162-T-J1-PDC patient-derived colon adenocarcinoma cell line growth inhibition [KRAS2]
Conditions: for viability, T/C: stronger effect = lower value
How it was run: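 KRAS-mutant tumor cells were grown as spheroids with HUVEC endothelial cells and human MSCs as stroma. Targeted agents were tested alone and with KRAS pathway inhibitors. Doses started at or near clinical Cmax, or 10 microM, descending half-log.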

[1] = curve of first compound, second compound 0.1 µM
[2] = curve of first compound, second compound 0.316 µM
[3] = curve of first compound, second compound 1 µM
[4] = curve of first compound, second compound 3.16 µM
[5] = curve of first compound, second compound 10 µM
[6] = second compound 0.1 µM, first compound 0.0316 µM
[7] = second compound 0.1 µM, first compound 0.1 µM
[8] = second compound 0.1 µM, first compound 0.316 µM
[9] = second compound 0.1 µM, first compound 1 µM
[10] = second compound 0.1 µM, first compound 3.16 µM
[11] = second compound 0.1 µM, first compound 10 µM
[12] = second compound 0.316 µM, first compound 0.0316 µM
[13] = second compound 0.316 µM, first compound 0.1 µM
[14] = second compound 0.316 µM, first compound 0.316 µM
[15] = second compound 0.316 µM, first compound 1 µM
[16] = second compound 0.316 µM, first compound 3.16 µM
[17] = second compound 0.316 µM, first compound 10 µM
[18] = second compound 1 µM, first compound 0.0316 µM
[19] = second compound 1 µM, first compound 0.1 µM
[20] = second compound 1 µM, first compound 0.316 µM
[21] = second compound 1 µM, first compound 1 µM
[22] = second compound 1 µM, first compound 3.16 µM
[23] = second compound 1 µM, first compound 10 µM
[24] = second compound 3.16 µM, first compound 0.0316 µM
[25] = second compound 3.16 µM, first compound 0.1 µM
[26] = second compound 3.16 µM, first compound 0.316 µM
[27] = second compound 3.16 µM, first compound 1 µM
[28] = second compound 3.16 µM, first compound 3.16 µM
[29] = second compound 3.16 µM, first compound 10 µM
[30] = second compound 10 µM, first compound 0.0316 µM
[31] = second compound 10 µM, first compound 0.1 µM
[32] = second compound 10 µM, first compound 0.316 µM
[33] = second compound 10 µM, first compound 1 µM
[34] = second compound 10 µM, first compound 3.16 µM
[35] = second compound 10 µM, first compound 10 µM
[36] = second compound 0.1 µM, first compound 0.01 µM
[37] = second compound 0.316 µM, first compound 0.01 µM
[38] = second compound 1 µM, first compound 0.01 µM
[39] = second compound 3.16 µM, first compound 0.01 µM
[40] = second compound 10 µM, first compound 0.01 µM
[41] = second compound 0.1 µM, first compound 0.00316 µM
[42] = second compound 0.316 µM, first compound 0.00316 µM
[43] = second compound 1 µM, first compound 0.00316 µM
[44] = second compound 3.16 µM, first compound 0.00316 µM
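Note: compound exposure lasted seven days before readout.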
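Throughout, for viability, T/C: 100% = DMSO vehicle control viability.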

SMILES	IC50 [1]	IC50 [2]	IC50 [3]	IC50 [4]	viability, T/C [6]	viability, T/C [7]	viability, T/C [8]	viability, T/C [9]	viability, T/C [12]	viability, T/C [13]	viability, T/C [14]	viability, T/C [15]	viability, T/C [18]	viability, T/C [19]	viability, T/C [20]	viability, T/C [21]	viability, T/C [24]	viability, T/C [25]	viability, T/C [26]	viability, T/C [27]	other results
COc1cc2nccc(Oc3ccc(NC(=O)C4(C(=O)Nc5ccc(F)cc5)CC4)cc3)c2cc1OC + COc1cc2nc(C)nc(NC(C)c3cc(N)cc(C(F)(F)F)c3)c2cc1OC1CCOC1	> 10 µM	> 10 µM	> 10 µM	> 10 µM	73.8%	73.3%	57%	107%	84.5%	82%	72.5%	85.7%	55.7%	73.4%	71.6%	98%	75%	76.8%	77.9%	79.4%	IC50 [5]: 2.33 µM; viability, T/C [10]: 129%; viability, T/C [11]: 99.9%; viability, T/C [16]: 95.5%; viability, T/C [17]: 64%; viability, T/C [22]: 112%; viability, T/C [23]: 68.9%; viability, T/C [28]: 41.2%; viability, T/C [29]: 82%; viability, T/C [30]: 66.6%; viability, T/C [31]: 76.5%; viability, T/C [32]: 65.3%; viability, T/C [33]: 97.1%; viability, T/C [34]: 1.79%; viability, T/C [35]: 79.3%
CN(C)C/C=C/C(=O)Nc1cc2c(Nc3ccc(F)c(Cl)c3)ncnc2cc1O[C@H]1CCOC1																					viability, T/C (compound 0.1 µM): 92.6% [middle of 5 runs]; IC50 (curve of compound): > 0.1 µM
COC(=O)c1ccc2c(C(=Nc3ccc(N(C)C(=O)CN4CCN(C)CC4)cc3)c3ccccc3)c(O)[nH]c2c1 + CNCc1ccccc1-c1csc(C(C)Nc2nc(C)nc3cc(OC)c(OC)cc23)c1	> 10 µM	> 10 µM	> 10 µM	2.34 µM	96.8%	83.2%	77.4%	100%	58.2%	91.8%	57%	89.9%	66.9%	110%	103%	57.1%	59.4%	128%	73.3%	74.8%	IC50 [5]: < 0.0316 µM; viability, T/C [10]: 92.4%; viability, T/C [11]: 73.3%; viability, T/C [16]: 90.5%; viability, T/C [17]: 92%; viability, T/C [22]: 64.7%; viability, T/C [23]: 70.4%; viability, T/C [28]: 40%; viability, T/C [29]: 37.6%; viability, T/C [30]: 0.86%; viability, T/C [31]: 0.39%; viability, T/C [32]: 0.42%; viability, T/C [33]: 0.31%; viability, T/C [34]: 0.28%; viability, T/C [35]: 1.62%
CC1COCCN1c1cc(-c2ccnn2C)c2ccnc(-c3ccn[nH]3)c2n1 (stereo not given) + C=CC(=O)N1CCN(c2nc(=O)n(-c3c(C)ccnc3C(C)C)c3nc(-c4c(O)cccc4F)c(F)cc23)C(C)C1	1.82 µM	2.1 µM	0.838 µM	> 3.16 µM	102%	89.3%	82.7%	61.6%	94%	78.4%	87.9%	69.8%	91.8%	124%	78.5%	50.1%	97.9%	89.4%	80.9%	68.6%	IC50 [5]: 0.34 µM; viability, T/C [36]: 115%; viability, T/C [10]: 38.1%; viability, T/C [37]: 87.4%; viability, T/C [16]: 39.1%; viability, T/C [38]: 116%; viability, T/C [22]: 39.6%; viability, T/C [39]: 110%; viability, T/C [28]: 48.8%; viability, T/C [40]: 70.4%; viability, T/C [30]: 87%; viability, T/C [31]: 61.8%; viability, T/C [32]: 56%; viability, T/C [33]: 21.3%; viability, T/C [34]: 20.3%
CC1OCC2(CCN(c3cnc(Sc4ccnc(N)c4Cl)c(N)n3)CC2)C1N (stereo not given)																					viability, T/C (compound 0.0316 µM): 81.1% and 93.6% and 89.9%; IC50 (compound alone, run of 07/12/2021): > 10 µM; IC50 (compound alone, run of 07/19/2021): 9.24 µM and > 10 µM; IC50 (curve of compound): > 10 µM and 10 µM
O=C(c1cc(Cc2n[nH]c(=O)c3ccccc23)ccc1F)N1CCN(C(=O)C2CC2)CC1 + COc1cc2nc(C)nc(NC(C)c3cc(N)cc(C(F)(F)F)c3)c2cc1OC1CCOC1	> 10 µM	> 10 µM	> 10 µM	> 10 µM	68.1%	98.2%	98.6%	111%	75.1%	90%	89.9%	80.2%	73.3%	108%	89.9%	83.7%	78.1%	89.7%	75.6%	80.8%	IC50 [5]: > 10 µM; viability, T/C [10]: 91%; viability, T/C [11]: 97.4%; viability, T/C [16]: 102%; viability, T/C [17]: 99.1%; viability, T/C [22]: 112%; viability, T/C [23]: 72.6%; viability, T/C [28]: 79.6%; viability, T/C [29]: 66.8%; viability, T/C [30]: 117%; viability, T/C [31]: 85.1%; viability, T/C [32]: 96.2%; viability, T/C [33]: 53.4%; viability, T/C [34]: 67.1%; viability, T/C [35]: 109%
CC(C)NCC(C(=O)N1CCN(c2ncnc3c2C(C)CC3O)CC1)c1ccc(Cl)cc1 (stereo not given)																					viability, T/C (compound 0.316 µM): 96.2% [middle of 5 runs]; viability, T/C (compound 1 µM): 89.7% [middle of 5 runs]; viability, T/C (compound 10 µM): 97.3% [middle of 5 runs]; IC50 (curve of compound): > 10 µM
CCN1CCN(Cc2ccc(Nc3ncc(F)c(-c4cc(F)c5nc(C)n(C(C)C)c5c4)n3)nc2)CC1 + C=CC(=O)N1CCN(c2nc(OCC3CCCN3C)nc3c2CCN(c2cccc4cccc(C)c24)C3)CC1CC#N	0.599 µM	> 1 µM	0.654 µM	> 1 µM	75.8%	76.4%	68.7%	34.9%	70.7%	64.9%	49.1%	56.5%	60.8%	63%	73%	38.4%	64.4%	69.2%	76%	37.4%	IC50 (curve of first compound, second compound 0.0316 µM): > 1 µM; viability, T/C (second compound 0.0316 µM, first compound 0.00316 µM): 76.5%; viability, T/C (second compound 0.0316 µM, first compound 0.01 µM): 57.7%; viability, T/C (second compound 0.0316 µM, first compound 0.0316 µM): 72.2%; viability, T/C (second compound 0.0316 µM, first compound 0.1 µM): 63.6%; viability, T/C (second compound 0.0316 µM, first compound 0.316 µM): 81.8%; viability, T/C (second compound 0.0316 µM, first compound 1 µM): 66.2%; viability, T/C [41]: 81.6%; viability, T/C [36]: 79.1%; viability, T/C [42]: 61.7%; viability, T/C [37]: 78.4%; viability, T/C [43]: 82.1%; viability, T/C [38]: 71.8%; viability, T/C [44]: 51.3%; viability, T/C [39]: 86.8%
CCN1CCN(Cc2ccc(Nc3ncc(F)c(-c4cc(F)c5nc(C)n(C(C)C)c5c4)n3)nc2)CC1 + COc1cc2nc(C)nc(NC(C)c3cc(N)cc(C(F)(F)F)c3)c2cc1OC1CCOC1	0.526 µM	0.391 µM	0.391 µM	0.471 µM	77.2%	74.5%	62.1%	34.7%	72.3%	98.2%	54.8%	29%	77.6%	61.8%	55.1%	30.1%	48.9%	67.2%	73.8%	27.4%	IC50 [5]: 0.0446 µM; viability, T/C [41]: 76.9%; viability, T/C [36]: 78.5%; viability, T/C [42]: 83.8%; viability, T/C [37]: 56%; viability, T/C [43]: 51.5%; viability, T/C [38]: 80.2%; viability, T/C [44]: 69.3%; viability, T/C [39]: 51%; viability, T/C (second compound 10 µM, first compound 0.00316 µM): 84%; viability, T/C [40]: 58%; viability, T/C [30]: 64.8%; viability, T/C [31]: 38.3%; viability, T/C [32]: 20.2%; viability, T/C [33]: 19.4%
